“Also recorded” adds a separate entry of the source.
Key:
[1] = target: T1, full-length recombinant rat vitamin D receptor (Rattus norvegicus, UniProt P13053); test: Vitamin D receptor binding (competition with 3H-1,25(OH)2D3); details: result in words, competition for tritiated hormone binding
T1 construct: Full-length recombinant rat receptor was expressed in E. coli; histidine tag (C); made in house; host or cells: E. coli BL21(DE3) Codon Plus RIL
T1 sequence (P13053 1-423): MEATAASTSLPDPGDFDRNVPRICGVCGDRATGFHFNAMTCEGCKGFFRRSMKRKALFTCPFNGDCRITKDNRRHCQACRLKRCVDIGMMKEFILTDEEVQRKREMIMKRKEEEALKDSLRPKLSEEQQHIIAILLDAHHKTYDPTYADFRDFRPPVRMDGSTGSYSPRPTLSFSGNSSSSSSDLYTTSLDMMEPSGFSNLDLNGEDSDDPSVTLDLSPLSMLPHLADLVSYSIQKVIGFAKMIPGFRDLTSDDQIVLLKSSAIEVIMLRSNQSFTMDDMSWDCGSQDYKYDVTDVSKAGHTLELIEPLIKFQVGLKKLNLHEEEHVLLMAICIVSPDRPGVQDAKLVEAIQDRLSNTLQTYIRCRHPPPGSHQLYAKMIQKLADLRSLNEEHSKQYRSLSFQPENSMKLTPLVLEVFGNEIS
Protocol: Full-length recombinant rat receptor was expressed in E. coli BL21(DE3) Codon Plus RIL cells and purified to homogeneity using two different column chromatography systems. The first system was a nickel affinity resin that utilizes the C-terminal histidine tag on this protein. The protein that was eluted from this resin was further purified using ion exchange chromatography (S-Sepharose Fast Flow). Aliquots of the purified protein were quick frozen in liquid nitrogen and stored at −80° C. until use. For use in binding assays, the protein was diluted in TEDK50 (50 mM Tris, 1.5 mM EDTA, pH 7.4, 5 mM DTT, 150 mM KCl) with 0.1% Chaps detergent. The receptor protein and ligand concentration was optimized such that no more than 20% of the added radiolabeled ligand was bound to the receptor.
Unlabeled ligands were dissolved in ethanol and the concentrations determined using UV spectrophotometry (1,25(OH)2D3: molar extinction coefficient=18,200 and λmax=265 nm; Analogs: molar extinction coefficient=42,000 and λmax=252 nm). Radiolabeled ligand (^3H-1,25(OH)2D3, ˜159 Ci/mmole) was added in ethanol at a final concentration of 1 nM.
Radiolabeled and unlabeled ligands were added to 100 mcl of the diluted protein at a final ethanol concentration of ≦10%, mixed and incubated overnight on ice to reach binding equilibrium. The following day, 100 mcl of hydroxylapatite slurry (50%) was added to each tube and mixed at 10-minute intervals for 30 minutes. The hydroxylapaptite was collected by centrifugation and then washed three times with Tris-EDTA buffer (50 mM Tris, 1.5 mM EDTA, pH 7.4) containing 0.5% Titron X-100. After the final wash, the pellets were transferred to scintillation vials containing 4 ml of Biosafe II scintillation cocktail, mixed and placed in a scintillation counter. Total binding was determined from the tubes containing only radiolabeled ligand.

[2] = test system: Human promyelocytic leukemia (HL60) cells; test: HL-60 differentiation (nitro blue tetrazolium reduction); format: cell-based; details: for cells induced to differentiate in the NBT assay: concentration 1×10^−7 M; for differentiation of HL-60 cells, compared to 1α,25(OH)2D3: result in words
Protocol: The study drugs were dissolved in ethanol and the concentrations determined using UV spectrophotometry. Serial dilutions were prepared so that a range of drug concentrations could be tested without changing the final concentration of ethanol (≦0.2%) present in the cell cultures.
Human promyelocytic leukemia (HL60) cells were grown in RPMI-1640 medium containing 10% fetal bovine serum. The cells were incubated at 37° C. in the presence of 5% CO2.
HL60 cells were plated at 1.2×10^5 cells/ml. Eighteen hours after plating, cells in duplicate were treated with drug. Four days later, the cells were harvested and a nitro blue tetrazolium reduction assay was performed (Collins et al., 1979; J. Exp. Med. 149:969-974). The percentage of differentiated cells was determined by counting a total of 200 cells and recording the number that contained intracellular black-blue formazan deposits. Verification of differentiation to monocytic cells was determined by measuring phagocytic activity (data not shown).

[3] = test system: 24-hydroxylase (24Ohase) gene promoter in ROS 17/2.8 (bone) cells; test: In vitro transcription assay (luciferase reporter); format: cell-based; details: result in words
Protocol: Transcription activity was measured in ROS 17/2.8 (bone) cells that were stably transfected with a 24-hydroxylase (24Ohase) gene promoter upstream of a luciferase reporter gene (Arbour et al., 1998). Cells were given a range of doses. Sixteen hours after dosing the cells were harvested and luciferase activities were measured using a luminometer. RLU=relative luciferase units.

[4] = Intestinal calcium transport (everted gut sac); format: in vivo; details: result in words, vitamin D deficient rat model, compared to 1α,25(OH)2D3
Protocol: (§1) Male, weanling Sprague-Dawley rats were placed on Diet 11 (0.47% Ca) diet+AEK for one week followed by Diet 11 (0.02% Ca)+AEK for 3 weeks. The rats were then switched to a diet containing 0.47% Ca for one week followed by two weeks on a diet containing 0.02% Ca. Dose administration began during the last week on 0.02% calcium diet. Four consecutive ip doses were given approximately 24 hours apart. Twenty-four hours after the last dose, blood was collected from the severed neck and the concentration of serum calcium determined as a measure of bone calcium mobilization. The first 10 cm of the intestine was also collected for intestinal calcium transport analysis using the everted gut sac method.

[5] = Bone calcium mobilization (serum calcium on low calcium diet); format: in vivo, rat; details: result in words; vitamin D deficient rat model, compared to 1α,25(OH)2D3
Protocol: as §1

3T3-L1 cells = test: Inhibition of 3T3-L1 differentiation into mature adipocytes (Oil-Red-O staining); format: cell-based, murine; details: for inhibition of differentiation of 3T3-L1 cells into mature adipocytes (Oil-Red-O staining): result in words, MDI-treated cells, staining at day 10; for inhibition of differentiation of MDI-treated 3T3-L1 cells (oil-red-O staining): tested at 1×10^−8.5 M
Protocol: Various 19-nor vitamin D analogs were or are tested and found to inhibit the differentiation of preadipocytes into mature adipocytes, to reduce body fat, to inhibit an increase in PPARγ, C/EBPα, and/or SCD-1 gene transcription and to be useful in treating and preventing obesity both in vivo and in vitro. The undifferentiated preadipocyte 3T3-L1 subline, a derivative of the original mouse fibroblast cell line, is one of the most accepted models for investigating the adipogenesis process and was used for the analysis. Two days after reaching confluence, 3T3-L1 cells can be induced to differentiate into adipocytes (see Mackall, J. C. et al. J. Biol. Chem., 251(20), 6462-6464 (1976)) with the addition of a cAMP phosphodiesterase inhibitor, dexamethasone (a glucocortoid), and insulin. […] The induction of PPARγ and C/EBPα is required for adipocyte differentiation. […] SCD-1 is an enzyme found in adipocytes that converts saturated fatty acids (C16 and C18) to their monounsaturated forms (C16:1 and C18:1). The deposition of triglyceride can also be detected as early as 3 days, and by the 7th to 14th days post-confluence, greater than 80% of the cells in the monolayer stain positively with Oil-red-O.

SCD-1 mRNA = test: Inhibition of SCD-1 mRNA induction in 3T3-L1 cells (RT-PCR); format: cell-based, murine; details: for inhibition of SCD-1 mRNA induction: result in words, MDI-treated 3T3-L1 cells; for inhibition of SCD1 mRNA induction: tested at 1×10^−8.5 M
Text: Chomczynski, P. et al., Anal. […] NO: 4)).

[6] = Hypercalcemia / serum calcium analysis; format: in vivo, rat; details: normal vitamin D sufficient rats, very high oral doses

SMILES | binding to the vitamin D receptor, compared to 1α,25(OH)2D3 [1] | cells induced to differentiate in the NBT assay [2] | differentiation of HL-60 cells, compared to 1α,25(OH)2D3 [2] | transcriptional activity in bone cells, compared to 1α,25(OH)2D3 [3] | intestinal calcium transport activity [4] | bone calcium mobilization activity [5] | inhibition of differentiation of 3T3-L1 cells into mature adipocytes (Oil-Red-O staining) (3T3-L1 cells) | inhibition of SCD-1 mRNA induction (SCD-1 mRNA) | inhibition of differentiation of MDI-treated 3T3-L1 cells (oil-red-O staining) (3T3-L1 cells) | inhibition of SCD1 mRNA induction (SCD-1 mRNA) | also measured
CC(CCCC(C)(C)O)C1CCC2C(=CC=C3CC(O)C(=CCCO)C(O)C3)CCCC21C (stereo not shown) [1AGS] | very active | same degree of differentiation | as potent as | significant transcriptional activity | relatively high intestinal calcium transport activity; also recorded: active | significant ability to mobilize calcium from bone; also recorded: active | nearly equipotent; also recorded: highest activity; also recorded: so much greater; also recorded: active | nearly equipotent; also recorded: active |  |  | binding to the vitamin D receptor, compared to 1α,25(OH)2D3 ([1]; listed as AGS): less than five times less potent; inhibition of differentiation of 3T3-L1 cells into mature adipocytes (Oil-Red-O staining) (3T3-L1 cells; listed as LAGS): slightly more active
C=C1[C@H](O)CC(=C/C=C2\CCC[C@]3(C)[C@@H](C(C)C)CC[C@@H]23)C[C@H]1O [2-MP] | as or nearly effective as calcitriol |  |  |  | little, if any, activity | little, if any, activity | nearly as potent as the native hormone | nearly as potent as the native hormone | active | active | increase in serum calcium [6]: without producing an increase in serum calcium; inhibition of differentiation of 3T3-L1 cells into mature adipocytes (Oil-Red-O staining) (3T3-L1 cells; listed as 2MP): still active; inhibition of SCD-1 mRNA induction (SCD-1 mRNA; listed as 2MP): still active
C=C1[C@H](O)CC(=C/C=C2\CCC[C@]3(C)[C@@H]([C@@H](C)CCCC)CC[C@@H]23)C[C@H]1O [(20S)OM] | as or nearly effective as calcitriol |  | almost as potent | about the same transcriptional activity |  | very little bone calcium mobilization activity | still possess activity | still possess activity |  |  | binding to the vitamin D receptor, compared to 1α,25(OH)2D3 ([1]; listed as OM): bound equally well; intestinal calcium transport activity ([4]; listed as (20S)-OM): less activity; intestinal calcium transport activity ([4]; listed as OM): very little activity; inhibition of differentiation of 3T3-L1 cells into mature adipocytes (Oil-Red-O staining) (3T3-L1 cells; listed as OM): increased slightly; inhibition of SCD-1 mRNA induction (SCD-1 mRNA; listed as OM): increased slightly
COCOCCC=C1C(O)CC(=CC=C2CCCC3(C)C2CCC3C(C)CCCC(C)(C)O)CC1O (stereo not shown) [F-Wit] | very active; also recorded: less than five times less potent | same degree of differentiation | as potent as | significant transcriptional activity | relatively high intestinal calcium transport activity; also recorded: active | significant ability to mobilize calcium from bone; also recorded: active | also active | active |  |  | 
C=C1[C@H](O)CC(=C/C=C2\CCC[C@@H]3[C@@H]([C@@H](C)CCCC(C)(C)O)CC[C@@H]23)C[C@H]1O [VD-03] | very active; also recorded: as well as the native hormone |  | high potency | higher transcriptional activity | about as active as; also recorded: approximately the same activity | relatively low ability | active | active |  |  | fold more active than the native hormone 1α,25-(OH)2D3 in inhibition of adipocyte differentiation (3T3-L1 cells; Oil-Red-O staining): approximately 10 fold
C=C1[C@H](O)CC(=C/C=C2\CCC[C@]3(C)C(=C(C)C)CC[C@@H]23)C[C@H]1O [VIT-I] | bound equally well; also recorded: as well as the native hormone |  | almost as potent | about the same transcriptional activity | very little activity; also recorded: less activity | very little bone calcium mobilization activity | has activity |  | active | active | 
